Columns and labels:
[1] = tested on: MDA-MB-231 breast adenocarcinoma cells; settings: MDA-MB-231 cells; for TRAIL sensitizing activity: compound 4 h, then TRAIL 20 h (Fig. 4)
[2] = molecular target: BIR2 domain of XIAP (Homo sapiens, UniProt P98170); settings: from Ki values
BIR2 domain of XIAP, sequence (P98170 124-240 limits assumed): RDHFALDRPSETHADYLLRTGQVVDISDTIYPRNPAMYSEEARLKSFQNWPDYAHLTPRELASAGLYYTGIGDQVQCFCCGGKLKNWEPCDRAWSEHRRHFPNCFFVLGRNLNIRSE

`CN[C@@H](C)C(=O)N[C@H](C(=O)N1CCC[C@H]1C(=O)N[C@@H]1CCCc2ccccc21)C(C)C` [Compound 9f] was tested, and the TRAIL sensitizing activity [1] was “strong TRAIL sensitizing activity”.
For `CN[C@@H](C)C(=O)N[C@H](C(=O)N1CCC[C@H]1C(=O)NNc1ccccc1)C(C)C` [Compound 9j], the “selectivity for BIR2 vs. BIR3” value [2] was “three-fold selective” and the TRAIL sensitizing activity [1] was “slightly less potent”.
In the case of “TRAIL: apoptosis-inducing agent added to MDA-MB-231 cells at varying concentrations”, the “LD50 of TRAIL” value ([1]; TRAIL alone) is reported as “could not be achieved”.
